One data set concerns U251 glioma cells. Nature of the data set: MTT cell viability, U251. Format: cell-based. To be noted: Homo sapiens, U-251, 72 h, read-out: IC50 U251 (GBM). As to the method:
(§1) U87-MG, U251-MG and NCI-H1299 cells were purchased from ATCC, while MKN45 was obtained from the Leibniz Institute DSMZ-German Collection of Microorganisms and Cell Cultures and the RWP1 cell line was kindly provided by Dr. Francisco Real. Cells were cultured in DMEM or RPMI (Gibco, Waltham, MA, USA) supplemented with 10% FBS, 100 U/mL penicillin and streptomycin and 2 mM L-Glutamine. Patient-derived glioma neural stem cells (GNS166 and GNS179) were kindly provided by Dr. Steve Pollard. These cells were cultured in adhesion plates treated with laminin A in DMEM/F12 media (Gibco) supplemented with N2 (Gibco), B27 (Gibco), D-(+)-Glucose solution 45% (Sigma-Aldrich, Burlington, MA, USA), basic Fibroblast Growth Factor (Gibco) and epidermal growth factor (Sigma-Aldrich). Normal human astrocytes (NHAs) were purchased from ScienCell and cultured using an astrocyte medium kit (ScienCell, San Diego, CA, USA) supplemented with FBS and Astrocyte Growth Supplement (AGS). All cells were maintained at standard conditions of 37 °C, 95% humidity, 21% O2 and 5% CO2, and cultures were regularly tested for Mycoplasma.
(§2) Cells were seeded in 96-well plates at a density of 1.5 × 10^3 or 5 × 10^3 cells/well (conventional cell lines or GNS and NHAs, respectively) and incubated overnight. […] Then, absorbance at 570 nm was measured. […]

Data set [1] has as its system NHA primary human astrocytes. In words: MTT cell viability, NHA. It is filed as cell-based. The conditions noted are these: Astrocyte, 72 h, non-tumor cells. As to the method:
as §1, §2

The test system of another data set is H1299 lung cancer cells. In words: MTT cell viability, H1299. It is filed as cell-based, human. As to the method:
as §1
Cells were seeded in 96-well plates at a density of 1.5 × 10^3 or 5 × 10^3 cells/well (conventional cell lines or GNS and NHAs, respectively) and incubated overnight. Next, cells were treated with increasing concentrations of the compounds, and after 72 h, they were incubated for 3.5 h with MTT. Then, absorbance at 570 nm was measured. GraphPad Prism software version 10.4.1 was used to calculate the IC50 values.

The target in the next data set is T1, recombinant hMAO-B (Homo sapiens, UniProt P27338).
T1 sequence (P27338 1-520): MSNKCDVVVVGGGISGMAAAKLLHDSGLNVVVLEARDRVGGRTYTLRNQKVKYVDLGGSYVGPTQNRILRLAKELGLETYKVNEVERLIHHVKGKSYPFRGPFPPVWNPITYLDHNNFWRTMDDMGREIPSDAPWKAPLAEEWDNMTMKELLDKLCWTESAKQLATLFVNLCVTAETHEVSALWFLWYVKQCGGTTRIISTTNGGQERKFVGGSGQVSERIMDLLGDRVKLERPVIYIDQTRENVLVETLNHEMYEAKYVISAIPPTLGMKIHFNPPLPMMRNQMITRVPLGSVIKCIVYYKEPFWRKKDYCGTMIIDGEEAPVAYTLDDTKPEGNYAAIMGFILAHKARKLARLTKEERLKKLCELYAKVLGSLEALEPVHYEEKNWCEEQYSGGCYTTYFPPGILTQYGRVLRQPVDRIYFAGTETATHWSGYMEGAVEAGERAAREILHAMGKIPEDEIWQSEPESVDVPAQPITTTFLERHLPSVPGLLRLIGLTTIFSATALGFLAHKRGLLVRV
In words: MAO-B inhibition assay. It is filed as biochemical. The conditions noted are these: for MAO inhibition MAO-B % / inhibition at 10 µM: 10 μM. As to the method:
[…] Next, horseradish peroxidase (200 U/mL), Ampliflu Red (20 mM) and tyramine hydrochloride (100 mM) (Sigma-Aldrich) were added, and absorbance was measured at 570 nm every 5 min for 30 min. The percentage of inhibition was calculated from the absorbance values.

The next data set concerns the target AChE (Homo sapiens, UniProt P22303). Nature of the data set: AChE inhibition, Ellman's colorimetric method. To be noted: read-out: ChE inhibition AChE %. Format: biochemical. As to the method: The inhibitory capacity of the compounds on ChEs was assessed using Ellman’s colorimetric method. Briefly, an inhibitor solution containing 10 µM of the MSMs and 0.3 mM DTNB was incubated for 20 min with the enzyme solution ([…]) at 37 °C. […] Inhibition percentages were calculated from these values. […] Further, enzyme kinetics were studied using different substrate and inhibitor concentrations. Results were represented in a Lineweaver–Burk plot using GraphPad Prism, and the constant of inhibition (Ki) was estimated from the point at which the line cuts the x-axis in the secondary plot.
(In Ellman's method for cholinesterases, released thiocholine reacts with DTNB.)

The subject of the next data set is HDAC6. In words: Western blot of acetylated α-tubulin (HDAC6 target). It is filed as cell-based, human. To be noted: GNS166 and U87 cells. As to the method: Sodium dodecyl sulfate–polyacrylamide gel electrophoresis was performed. Primary antibodies against HDAC1 (Abcam, Cambridge, UK) and HDAC6 (Cell Signaling, Dancers, MA, USA) and their main targets, acetylated H3 (Cell Signaling) and acetylated α-tubulin (Abcam), were used; acetylated lysine (Cell Signaling) and β-actin (Sigma-Aldrich) were used as endogenous controls. Secondary antibodies conjugated to horseradish peroxidase were anti-rabbit or anti-mouse (Cell Signaling). Proteins were detected using the iBright imaging system and NOVEX ECL Chemi Substrate or SuperSignal West Femto Maximum Sensitivity Substrate (ThermoFisher, Waltham, MA, USA).
Background: Immunoblotting shows a protein as a band on a membrane.

Data set [2] concerns GNS166, GNS179, U87 and U251 cells. Nature of the data set: Immunofluorescence of Ki67, p-H3 and cleaved caspase-3. Format: cell-based, human. To be noted: 1, 3 and 5 μM, 48 h, all glioma cell types. As to the method: For immunofluorescence assays, cells were seeded at a density of 2 × 10^4 cells/well in 8-well immunofluorescence chambers (LabTek Thermo, Waltham, MA, USA) and incubated overnight. Then, cells were treated for 48 h and fixed with 4% PFA. Primary antibodies against phospho-histone H3 (p-H3) (Abcam), cleaved caspase-3 (Casp3) (R&D Systems, Minneapolis, MN, USA) and Ki67 (Abcam) and secondary antibodies Alexa Fluor anti-mouse and anti-rabbit (Invitrogen, Carlsbad, CA, USA) were used. Nuclei were stained with DAPI (Sigma-Aldrich). Pictures were taken with an Axio Observer 7 epifluorescence microscope, and Qupath version 0.6.0 was used for quantifications. Percentages of Ki67-, p-H3- and Casp3-positive cells were calculated, taking into account the number of nuclei.

A further data set has as its system GNS166 cells. In words: RNA-seq. To be noted: 5 µM. It is filed as cell-based, human. The text has this:
For transcriptomic analysis, total RNA was extracted and samples were sent to BGI Tech Solutions. […] Genes presenting a fold-change value ≥4 or ≤−4 and an FDR-adjusted p-value < 0.01 were defined as differentially expressed and used to perform downstream enrichment studies.

Data set [3] is described as follows: In vivo toxicity, body weight. Details: species or system athymic nude-Foxn1nu mice. The conditions noted are these: intraperitoneal, 3 days per week.
Another data set has as its target BChE (Homo sapiens, UniProt P06276). In words: BChE inhibition, Ellman's colorimetric method. Format: biochemical. To be noted: 1 μM; read-out: ChE inhibition BChE %.

Sequence of BChE (P06276 29-602, species assumed): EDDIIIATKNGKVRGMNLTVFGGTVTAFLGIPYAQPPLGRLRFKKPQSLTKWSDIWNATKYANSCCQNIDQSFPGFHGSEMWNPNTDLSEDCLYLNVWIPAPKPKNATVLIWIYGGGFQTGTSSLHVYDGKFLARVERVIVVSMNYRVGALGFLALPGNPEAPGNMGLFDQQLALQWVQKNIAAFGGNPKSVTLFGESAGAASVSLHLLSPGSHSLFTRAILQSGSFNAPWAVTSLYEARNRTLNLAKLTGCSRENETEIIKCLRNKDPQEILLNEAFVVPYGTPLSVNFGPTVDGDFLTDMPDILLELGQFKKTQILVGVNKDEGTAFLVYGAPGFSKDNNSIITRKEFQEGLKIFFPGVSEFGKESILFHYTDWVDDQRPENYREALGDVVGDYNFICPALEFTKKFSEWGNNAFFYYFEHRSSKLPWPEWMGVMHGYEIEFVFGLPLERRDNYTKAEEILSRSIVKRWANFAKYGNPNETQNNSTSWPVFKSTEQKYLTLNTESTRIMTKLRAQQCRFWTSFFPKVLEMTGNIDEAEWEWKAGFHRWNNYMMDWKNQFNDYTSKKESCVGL
Sequence of AChE (P22303 32-614): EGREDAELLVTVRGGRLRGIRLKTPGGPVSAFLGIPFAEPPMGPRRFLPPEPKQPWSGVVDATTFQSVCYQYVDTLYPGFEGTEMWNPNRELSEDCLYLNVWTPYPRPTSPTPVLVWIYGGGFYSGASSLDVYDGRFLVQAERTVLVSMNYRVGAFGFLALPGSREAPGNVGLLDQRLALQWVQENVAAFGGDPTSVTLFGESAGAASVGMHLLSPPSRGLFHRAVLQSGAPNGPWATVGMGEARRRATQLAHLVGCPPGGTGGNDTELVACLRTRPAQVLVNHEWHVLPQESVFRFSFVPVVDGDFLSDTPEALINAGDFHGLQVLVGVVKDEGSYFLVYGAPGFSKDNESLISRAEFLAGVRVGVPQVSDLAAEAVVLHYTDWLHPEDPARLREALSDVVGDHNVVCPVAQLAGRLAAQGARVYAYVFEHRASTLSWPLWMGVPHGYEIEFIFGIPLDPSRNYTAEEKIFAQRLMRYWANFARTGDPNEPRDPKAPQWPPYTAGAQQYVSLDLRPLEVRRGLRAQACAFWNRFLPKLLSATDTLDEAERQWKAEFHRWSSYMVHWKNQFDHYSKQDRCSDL

For the compound `CCCNNC(=O)c1ccc(S(=O)(=O)n2ccc3cc(OCCCN4CCCCC4)ccc32)cc1` [FRB44], the IC50 stood at 3.1 µM in the data set on U251 glioma cells; 41.4 µM in data set [1]; 11 µM in the data set on H1299 lung cancer cells (Homo sapiens, NCI-H1299, 72 h); 3.16 µM on recombinant hMAO-B (increasing concentrations of inhibitor). Besides, the values for the inhibition at 1 µM on recombinant hMAO-B and on BChE were 18% and 20%, respectively. Also, at recombinant hMAO-B, the “MAO inhibition MAO-B %” value is on record as 70%. Besides, the inhibition at 10 µM on recombinant hMAO-B came out at 69%; on AChE it was 24%. The “levels of acetyl-α-tubulin” value in the data set with HDAC6 is “increased”. Also, the “proliferative markers (Ki67- and p-H3-positive cells)” value in data set [2] is on record as “clear reductions”. Besides, in the data set on GNS166 cells, the “FC of CDKN1A (RNA-seq)” value was 3.53 fold. Further, in the data set with GNS166 cells, the “FC of MKI67 (RNA-seq)” value stood at 0.09 fold. Also, the “body weight vs control animals” value in [3] is reported as “no statistically significant differences”.
`C#CCN1CCN(CCCOc2ccc3c(ccn3S(=O)(=O)c3ccc(C(=O)NNCCC)cc3)c2)CC1` [FRB56]: the 50% inhibitory concentration (IC50) with U251 glioma cells was 12 µM; in data set [1], 26.6 µM; with H1299 lung cancer cells (72 h), less than 5 µM; in the data set with H1299 lung cancer cells (Homo sapiens, NCI-H1299, 72 h) it was 4.9 µM. Further, the inhibition at 1 µM at recombinant hMAO-B worked out at 83%; on BChE it was 10%. Besides, the “MAO inhibition MAO-B %” value at recombinant hMAO-B worked out at 90%. Moreover, the inhibition at 10 µM turned out to be 89% on recombinant hMAO-B and 13% at AChE. Moreover, the “levels of acetyl-α-tubulin” value in the data set with HDAC6 is reported as “increased”. The “proliferative markers (Ki67- and p-H3-positive cells)” value in data set [2] was “clear reductions”. The “FC of CDKN1A (RNA-seq)” value in the data set with GNS166 cells stood at 3.12 fold. In addition, the “FC of MKI67 (RNA-seq)” value with GNS166 cells came out at 0.06 fold. The “body weight vs control animals” value in data set [3] is on record as “no statistically significant differences”.

As usually defined, the IC50 is the concentration needed to halve the response being measured. The term inhibition denotes the percentage by which the read-out fell short of the control.

The values are drawn from article PMC12736535, “Generation and Characterization of Novel Contilisant+Tubastatin a Multitarget Small Molecules Against Glioblastoma” (Pharmaceutics, 2025).
